Source: patent US6265578A, “Pyrimidine-2,4,6-triones” (Hoffmann-La Roche Inc., priority 2000, dated 2001)
Like-named read-outs stand apart in the source and are kept apart here.

What was measured:
Type in all cases: biochemical
[1] = target: T1, gelatinase-A (human 72 kDa gelatinase) (Homo sapiens, UniProt P08253); assay: IC50 for inhibition of gelatinase-A (human 72 kDa gelatinase), fluorogenic peptide cleavage assay (GelA)
T1 construct: endogenous in cells; host or cells: fetal lung fibroblasts (purified from conditioned media)
T1 sequence (P08253 110-660): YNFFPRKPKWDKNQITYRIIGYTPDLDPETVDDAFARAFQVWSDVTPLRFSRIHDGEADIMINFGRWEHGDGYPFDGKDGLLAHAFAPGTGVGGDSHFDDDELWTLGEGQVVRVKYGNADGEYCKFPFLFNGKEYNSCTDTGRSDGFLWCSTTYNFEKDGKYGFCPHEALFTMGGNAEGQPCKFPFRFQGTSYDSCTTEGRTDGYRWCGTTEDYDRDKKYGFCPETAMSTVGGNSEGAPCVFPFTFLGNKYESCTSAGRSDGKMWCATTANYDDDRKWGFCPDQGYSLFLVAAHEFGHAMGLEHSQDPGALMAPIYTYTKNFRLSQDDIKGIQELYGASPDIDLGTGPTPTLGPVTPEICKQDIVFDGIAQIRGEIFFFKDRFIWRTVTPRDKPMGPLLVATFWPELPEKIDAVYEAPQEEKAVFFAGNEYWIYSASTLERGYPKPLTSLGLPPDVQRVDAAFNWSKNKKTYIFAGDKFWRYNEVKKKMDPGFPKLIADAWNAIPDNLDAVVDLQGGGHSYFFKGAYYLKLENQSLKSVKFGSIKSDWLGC
Description: (§1) Human 72 kDa gelatinase was purified from the conditioned media of fetal lung fibroblasts according to known methods. The enzyme was stored in the pro-form at -80° C. and activated prior to use by treatment with 1 mM aminophenyl mercuriacetate (APMA) for 1 hour at 37° C., then dialyzed against reaction buffer before use. Human neutrophil gelatinase (95 kDa gelatinase) was purified from conditioned media of NSO-cells according to known methods. This enzyme was likewise stored in the zymogen form at -80° C. It was activated by treatment with trypsin (5 μg/mL) for 1 hour at 37° C., followed by addition of bovine pancreatic trypsin inhibitor to 50 μg/mL. Human matrilysin was obtained from a bacterial expression system as a ubiquitin fusion construct Welch, A. R., Holman, C. M., Browner, M. F., Gehring, M. R., Kan, C.-C., & Van Wart, H. E. (1995) Arch. Biochem. Biophys. 324, 59-64. The mature form of matrilysin was purified following activation with 1 mM APMA (1 hour, 37° C.) and the active enzyme stored at -80° C. The catalytic domain of human collagenase-3 was obtained in a manner analogous to that for matrilysin. The final form of collagenase-3 used for these studies consisted of the residues Tyr104 -Asn274 from the full length collagenase sequence. The catalytic domain of human stromelysin-1 was produced via E. coli expression and purification according to known methods; the activated, catalytic domain was stored at -80° C.
The assay methods utilized the fluorogenic substrate: Dnp-Pro-Cha-Gly-Cys(Me)-His-Ala-Lys(NMA)-NH2. (Dnp=dinitro phenyl; Cha=cyclohexylalanine; Cys(Me)=S-methyl cysteine, Lys(NMA)=N^ε-methyl-anthranoyl-1-lysine). Stock solutions were prepared in DMSO. Stock solutions of compounds of formula I (inhibitor) were also prepared in DMSO.
For gelatinase-A and gelatinase-B, the buffer was pH 7.5, 50 mM TrisHCl, 200 mM NaCl, 5 mM CaCl2, 20 μM ZnCl2, 0.05% (wt/v) Brij-35. For matrilysin and the catalytic domain of collagenase-3, the buffer composition was pH 7.5, 50 mM Hepes, 200 mM NaCl, 5 mM CaCl2, 20 μM ZnCl2, 0.05% (wt/v) Brij-35. The final substrate concentration in all cases 10 μM. The approximate concentrations for the enzymes were: gelatinase-A, 0.8 nM; gelatinase-B, 0.5 nM; collagenase-3, 0.4 nM; matrilysin, 10 nM. […] The extent of substrate conversion was determined by reading the fluorescence of the stopped reactions (excitation wavelength: 355 nm; emission wavelength: […]).
A rate at each inhibitor concentration was obtained from a linear least squares fit to the fluorescence time course. The percent inhibition at inhibitor concentration [I] was calculated as: […]

[2] = target: T2, human collagenase-3 (catalytic domain) (Homo sapiens, UniProt P45452); assay: IC50 for inhibition of the catalytic domain of human collagenase-3, fluorogenic peptide cleavage assay (Coll-3)
T2 construct: ubiquitin (cleaved yes); made in house; host or cells: bacterial expression system (analogous to matrilysin)
Description: Human matrilysin was obtained from a bacterial expression system as a ubiquitin fusion construct Welch, A. R., Holman, C. […] The mature form of matrilysin was purified following activation with 1 mM APMA (1 hour, 37° C.) and the active enzyme stored at -80° C. The catalytic domain of human collagenase-3 was obtained in a manner analogous to that for matrilysin. The final form of collagenase-3 used for these studies consisted of the residues Tyr104 -Asn274 from the full length collagenase sequence.
For matrilysin and the catalytic domain of collagenase-3, the buffer composition was pH 7.5, 50 mM Hepes, 200 mM NaCl, 5 mM CaCl2, 20 μM ZnCl2, 0.05% (wt/v) Brij-35. The final substrate concentration in all cases 10 μM. The approximate concentrations for the enzymes were: gelatinase-A, 0.8 nM; gelatinase-B, 0.5 nM; collagenase-3, 0.4 nM; matrilysin, 10 nM. To perform the peptide cleavage assay, the vessel containing buffer and compound of formula I were pre-equilibrated at 37° C., then the reaction initiated by successive addition of concentrated stocks of enzyme and substrate, and incubation at 37° C. was continued. At successive time points between 30 and 120 minutes, 50 μL aliquots of the assays were pulled and the enzymatic reaction stopped by addition to 150 μL of 30 mM EDTA (pH 7.4) in the well of a black, flat bottom microtiter plate.
% inh[I]=100(1-rate[I]/ratePC)
(§2) % inh[I]=percent inhibition at inhibitor concentration [I]
(§3) rate[I]=rate at inhibitor concentration [I]
ratePC=rate of positive control […]

[3] = target: T3, gelatinase-B (human neutrophil gelatinase, 95 kDa gelatinase) (Homo sapiens, UniProt P14780); assay: IC50 for inhibition of gelatinase-B (human neutrophil gelatinase, 95 kDa), fluorogenic peptide cleavage assay (GelB)
T3 construct: made in house; host or cells: NSO-cells (purified from conditioned media)
Description: For gelatinase-A and gelatinase-B, the buffer was pH 7.5, 50 mM TrisHCl, 200 mM NaCl, 5 mM CaCl2, 20 μM ZnCl2, 0.05% (wt/v) Brij-35. […] The final substrate concentration in all cases 10 μM. The approximate concentrations for the enzymes were: gelatinase-A, 0.8 nM; gelatinase-B, 0.5 nM; collagenase-3, 0.4 nM; matrilysin, 10 nM. To perform the peptide cleavage assay, the vessel containing buffer and compound of formula I were pre-equilibrated at 37° C., then the reaction initiated by successive addition of concentrated stocks of enzyme and substrate, and incubation at 37° C. was continued. At successive time points between 30 and 120 minutes, 50 μL aliquots of the assays were pulled and the enzymatic reaction stopped by addition to 150 μL of 30 mM EDTA (pH 7.4) in the well of a black, flat bottom microtiter plate. The extent of substrate conversion was determined by reading the fluorescence of the stopped reactions (excitation wavelength: 355 nm; emission wavelength: 460 nM).
% inh[I]=100(1-rate[I]/ratePC)
as §2, §3
ratePC=rate of positive control […]

[4] = system: human stromelysin-1 (catalytic domain); assay: IC50 for inhibition of the catalytic domain of human stromelysin-1, fluorogenic substrate assay (Strom-1); details: pH 6.5, ambient temperature, 60 min, 10 μM substrate, 10 nM enzyme
Description: as §1
The assay methods utilized the fluorogenic substrate: Dnp-Pro-Cha-Gly-Cys(Me)-His-Ala-Lys(NMA)-NH2. […]
Measurements for stromelysin-1: the catalytic domain of stromelysin-1 was tested using the same substrate but with a modified protocol. […] The reaction was started by addition of an aliquot of enzyme stock and the generated fluorescence was read directly after 60 minutes. […] The % inh[I] was calculated as: […]
where Fluor[I]=corrected fluorescence at 60 minutes observed for inhibitor concentration [I]
FluorPC=corrected fluorescence at 60 minutes observed for the positive control […]

[5] = catalytic domain, pH 7.5, 37° C., 10 μM substrate, 0.4 nM enzyme, 5% DMSO, read-out: IC50 Coll-3

T3 sequence (P14780 107-707 limits assumed): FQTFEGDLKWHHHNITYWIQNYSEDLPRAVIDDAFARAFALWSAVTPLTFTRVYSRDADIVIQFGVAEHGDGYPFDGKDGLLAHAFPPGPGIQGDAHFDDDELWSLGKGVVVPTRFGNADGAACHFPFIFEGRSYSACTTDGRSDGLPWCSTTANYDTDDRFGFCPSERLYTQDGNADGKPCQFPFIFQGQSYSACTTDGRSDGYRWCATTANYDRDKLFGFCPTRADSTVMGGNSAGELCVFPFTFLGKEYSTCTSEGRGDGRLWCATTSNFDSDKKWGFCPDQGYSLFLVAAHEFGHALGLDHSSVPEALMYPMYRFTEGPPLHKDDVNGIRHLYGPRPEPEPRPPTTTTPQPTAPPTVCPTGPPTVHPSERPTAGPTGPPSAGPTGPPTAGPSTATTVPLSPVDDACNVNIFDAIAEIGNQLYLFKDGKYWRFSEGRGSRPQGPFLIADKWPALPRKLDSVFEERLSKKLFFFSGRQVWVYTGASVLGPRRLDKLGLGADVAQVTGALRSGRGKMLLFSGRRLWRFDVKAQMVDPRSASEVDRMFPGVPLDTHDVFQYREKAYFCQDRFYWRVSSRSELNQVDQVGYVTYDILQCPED

| SMILES | IC50 [1] [nM] | IC50 [2, 5] [nM] | IC50 ([3]; pH 7.5, 37° C., 10 μM substrate, 0.5 nM enzyme, 5% DMSO, read-out: IC50 GelB) [nM] | IC50 [4] [nM] | IC50 [3] [nM] | IC50 [2] [nM] | IC50 ([4]; value in nM) [nM] | IC50 ([1]; pH 7.5, 37° C., 10 μM substrate, 0.8 nM enzyme, 5% DMSO, read-out: IC50 GelA) [nM] |
| --- | --- | --- | --- | --- | --- | --- | --- | --- |
| CC1(c2ccc(Oc3ccccc3)cc2)C(=O)NC(=O)NC1=O [A, 5-methyl-5-(4-phenoxyphenyl)pyrimidine-2,4,6-trione] | 80 | 65 | 52 | 2000 | – | – | – | – |
| CCCCCCC1(c2ccc(Oc3ccccc3)cc2)C(=O)NC(=O)NC1=O [B, 5-hexyl-5-(4-phenoxyphenyl)pyrimidine-2,4,6-trione] | 67 | 78 | – | 2000 | 50 | – | – | – |
| O=C1NC(=O)C(COCc2ccccc2)(c2ccc(Oc3ccccc3)cc2)C(=O)N1 [C, 5-benzyloxymethyl-5-(4-phenoxyphenyl)pyrimidine-2,4,6-trione] | 26 | – | – | – | 23 | 47 | 930 | – |
| O=C1NC(=O)C(CCO)(c2ccc(Oc3ccccc3)cc2)C(=O)N1 [D, 5-(2-hydroxyethyl)-5-(4-phenoxyphenyl)pyrimidine-2,4,6-trione] | – | – | – | – | – | – | – | 59 |
